From patent US8815879B2, “Substituted 4-(selenophen-2(or-3)-ylamino)pyrimidine compounds and methods of use thereof” (Kasina Laila Innova Pharmaceuticals Private Limited, priority 2010, dated 2014) come the findings set out here.

Structures can show the parent of a compound that is named as a salt.

Data set [1] deals with human colorectal carcinoma HT29 cells. As to the kind of experiment: MTT based cell proliferation assay, HT29. To be noted: for IC50 / inhibition at 10 µg/mL: Homo sapiens, HT-29, 72 h; for IC50: read-out: Cell Proliferation Inhibition in HT29 (Colon carcinoma), IC50; for inhibition at 10 µg/mL: read-out: Cell Proliferation Inhibition in HT29 (Colon carcinoma), % at highest screening dose.

Data set [2] relates to human prostate DU145 cells. As to the kind of experiment: MTT based cell proliferation assay, DU145. Particulars: for IC50 / inhibition at 10 µg/mL: Homo sapiens, DU-145, 72 h; for IC50: read-out: Cell Proliferation Inhibition in DU145 (Prostate carcinoma), IC50; for inhibition at 10 µg/mL: read-out: Cell Proliferation Inhibition in DU145 (Prostate carcinoma), % at highest screening dose.

In data set [3] the test system is human lung carcinoma A549 cells. Kind of data set: MTT based cell proliferation assay, A549. To be noted: for IC50 / inhibition at 10 µg/mL: Homo sapiens, A549, 72 h; for IC50: read-out: Cell Proliferation Inhibition in A549 (Lung carcinoma), IC50; for inhibition at 10 µg/mL: read-out: Cell Proliferation Inhibition in A549 (Lung carcinoma), % at highest screening dose.

Data set [4] relates to human cervical carcinoma HeLa cells. As to the kind of experiment: cells. It counts as cell-based. The method, then: (§1) MTT [3-(4,5-dimethylthiazol-2-yl)-2,5-diphenyltetrazolium bromide] incorporation based cell proliferation assay was performed using standard procedure. […] The assay was carried out according to the instructions provided by the vendor. […] Vehicle control culture wells received only a maximum of 0.5% DMSO. Thereafter, 0.5 mg/ml of MTT reagent was added to each well and the microplate was incubated further for 4 h at 37° C. in presence of 5% CO2. Finally, the cells were solubilized by adding solubilizing solution and allowed to incubate at 37° C. overnight. After complete solubilization of the formazan crystals the absorbance was read at 540 nm in a microplate reader (BioRad, USA).
(§2) The evaluation of cell proliferation inhibitory activities of the compounds was done in two phases—(1) Screening, and (2) half-maximal inhibitory concentration (IC50) determination. In the screening phase, the cells were treated with three different concentrations e.g. 1, 5 and 10 μg/ml.

Data set [5] concerns human breast carcinoma (estrogen receptor negative) MDA-MB-231 cells. As to the kind of experiment: cells. Type of data set: cell-based. The method, then: as §1, §2
In data set [6] the test system is HepG2 (Hepatocellular Carcinoma). As to the kind of experiment: cells. It counts as cell-based. The method, then:
as §1, §2

The term melting point denotes the temperature of the solid-liquid transition. Turning to `CC(C)(C)c1cc(Nc2ncnc3ccc(N)cc23)c(C(N)=O)[se]1` (as salt: HCl) [Compound 8, 3-(6-aminoquinazolin-4-ylamino)-5-tert-butylselenophene-2-carboxamide], the melting point lay within 170 to 172 °C.

With `CC(C)(C)c1cc(Nc2ncnc3ccc(NC(=O)CCl)cc23)c(C(N)=O)[se]1` (as salt: HCl) [Compound 9, 3-(6-(2-chloroacetamido)quinazolin-4-ylamino)-5-tert-butylselenophene-2-carboxamide], the melting point was in the range of 276 to 278 °C.

For the compound `COC(=O)c1cc(Nc2ncnc3cc(OC)c(OCCCN4CCOCC4)cc23)c(C)[se]1` (as salt: HCl) [Compound 10, methyl 4-(6-(3-morpholinopropoxy)-7-methoxyquinazolin-4-ylamino)-5-methylselenophene-2-carboxylate], the melting point was 198 to 200 °C.

In the case of `COc1cc2ncnc(Nc3cc(C(N)=O)[se]c3C)c2cc1OCCCN1CCOCC1` (as salt: HCl) [Compound 11, 4-(6-(3-morpholinopropoxy)-7-methoxyquinazolin-4-ylamino)-5-methylselenophene-2-carboxamide], the melting point is 252 to 254 °C.

Compound `CC(C)(C)c1cc(Nc2ncnc3ncccc23)c(C(N)=O)[se]1` (as salt: HCl) [Compound 12, 5-tert-butyl-3-(pyridino[2,3-d]pyrimidin-4-ylamino)selenophene-2-carboxamide] had a melting point of 242 to 244 °C.

As to `CCc1c(C)sc2ncnc(Nc3cc(C(C)(C)C)[se]c3C(N)=O)c12` (as salt: HCl) [Compound 13, 3-(5-ethyl-6-methylthiopheno[2,3-d]pyrimidin-4-ylamino)-5-tert-butylselenophene-2-carboxamide], the melting point was in the range of 258 to 260 °C.

`CC(C)(C)c1cc(Nc2ncnc3cc(C(C)(C)C)[se]c23)c(C(N)=O)[se]1` (as salt: HCl) [Compound 18, 3-(6-tert-butylselenopheno[3,2-d]pyrimidin-4-ylamino)-5-tert-butylselenophene-2-carboxamide] displayed a melting point of 212 to 214 °C.

`CCc1c(C)[se]c2ncnc(Nc3cc(C(C)(C)C)[se]c3C(N)=O)c12` (as salt: HCl) [Compound 19, 3-(5-ethyl-6-methylselenopheno[2,3-d]pyrimidin-4-ylamino)-5-tert-butylselenophene-2-carboxamide] displayed a melting point of 278 to 280 °C.

In turn, `COc1cc2ncnc(N(C)c3cc(C(C)(C)C)[se]c3C(N)=O)c2cc1OCCCN1CCOCC1` (as salt: HCl) [Compound 22, 3-(N-(6-(3-morpholinopropoxy)-7-methoxyquinazolin-4-yl)-N-methylamino)-5-tert-butylselenophene-2-carboxamide] had a melting point of 254 to 256 °C.

`COc1cc2ncnc(N(CCCl)c3cc(C(C)(C)C)[se]c3C(N)=O)c2cc1OCCCN1CCOCC1` (as salt: HCl) [Compound 23, 3-(N-(6-(3-morpholinopropoxy)-7-methoxyquinazolin-4-yl)-N-(2-chloroethyl)amino)-5-tert-butylselenophene-2-carboxamide] returned a melting point of 190 to 192 °C.

For `COc1cc2nc(C)nc(Nc3cc(C(C)(C)C)[se]c3C(N)=O)c2cc1OC` (as salt: HCl) [Compound 24, 3-(6,7-dimethoxy-2-methylquinazolin-4-ylamino)-5-tert-butylselenophene-2-carboxamide], the melting point lay within 282 to 284 °C.

Turning to `COC(=O)c1cc(Nc2nc(C)nc3cc(OC)c(OC)cc23)c(C)[se]1` (as salt: HCl) [Compound 25, methyl 4-(6,7-dimethoxy-2-methylquinazolin-4-ylamino)-5-methylselenophene-2-carboxylate], the melting point is 276 to 280 °C.

`COc1cc2nc(CN(C)C)nc(Nc3cc(C(C)(C)C)[se]c3C(N)=O)c2cc1OC` (as salt: HCl) [Compound 27] returned a melting point of 226 to 228 °C.

`COc1cc2ncnc(Nc3cc(C(C)(C)C)[se]c3C(N)=O)c2cc1OC` [Compound 1, 3-(6,7-dimethoxyquinazolin-4-ylamino)-5-tert-butylselenophene-2-carboxamide] returned a melting point of 234 to 238 °C. In addition, in data set [1], the IC50 turned out to be 5.12 µM. In addition, in data set [1] (ratio of IC50 values), the “potency in vitro compared to gefitinib (Iressa), HT29” value is “several times better potency”. Besides, the IC50 in data set [2] is 3.6 µM. For the same compound, the “potency in vitro compared to gefitinib (Iressa), DU145” value in data set [2] (ratio of IC50 values) is “several times better potency”. For the same compound, in data set [3], the IC50 came to 9.08 µM. In addition, the “potency in vitro compared to gefitinib (Iressa), A549” value in data set [3] (ratio of IC50 values) is recorded as “approximately two times”.

For `CSc1cc2ncnc(Nc3cc(C(C)(C)C)[se]c3C(N)=O)c2s1` [Compound 14, 3-(6-(methylthio)thiopheno[3,2-d]pyrimidin-4-ylamino)-5-tert-butyl-selenophene-2-carboxamide], the melting point was in the range of 260 to 262 °C. In addition, the inhibition at 10 µg/mL in data set [1] turned out to be 53.5%. Further, in data set [2], the inhibition at 10 µg/mL was 7.81%. Also, the inhibition at 10 µg/mL in data set [3] came to 3.54%.

As to `CC(C)(C)c1cc(Nc2ncnc3oc(-c4ccccc4)cc23)c(C(N)=O)[se]1` [Compound 15, 3-(6-phenylfuro[2,3-d]pyrimidin-4-ylamino)-5-tert-butylselenophene-2-carboxamide], the melting point lay in the range of 280 to 282 °C. Further, the inhibition at 10 µg/mL in data set [1] was 25.4%. Besides, the inhibition at 10 µg/mL in data set [2] is 3.44%. Besides, in data set [3], the inhibition at 10 µg/mL stood at 5.87%.

The compound `CC(C)(C)c1cc2c(Nc3cc(C(C)(C)C)[se]c3C(N)=O)ncnc2o1` [Compound 16, 3-(6-tert-butylfuro[2,3-d]pyrimidin-4-ylamino)-5-tert-butylselenophene-2-carboxamide] had a melting point of 288 to 290 °C. The inhibition at 10 µg/mL in data set [1] is 20.3%. The inhibition at 10 µg/mL in data set [2] was 2.81%. In data set [3], the inhibition at 10 µg/mL was 1.6%.

`COC(=O)c1cc(Nc2ncnc3[nH]c(C)c(C)c23)c(C)[se]1` [Compound 17, methyl 4-(5,6-dimethyl-7H-pyrrolo[2,3-d]pyrimidin-4-ylamino)-5-methylselenophene-2-carboxylate] displayed a melting point of 238 to 240 °C. Further, in data set [1], the inhibition at 10 µg/mL is 4.54%. In addition, the inhibition at 10 µg/mL in data set [2] came to 7.62%. In addition, the inhibition at 10 µg/mL in data set [3] worked out at 2.66%.

Take `COc1cc2ncnc(N(C)c3cc(C(C)(C)C)[se]c3C(N)=O)c2cc1OC` [Compound 21, 3-(N-(6,7-dimethoxyquinazolin-4-yl)-N-methylamino)-5-tert-butylseleno-phene-2-carboxamide]: the melting point was 256 to 258 °C. For the same compound, the IC50 in data set [1] is 3.88 µM. In addition, the IC50 in data set [2] came out at 3.95 µM. Also, the IC50 in data set [3] is 3.59 µM. The IC50 in data set [4] (Homo sapiens, HeLa, MTT, read-out: Cell proliferation inhibition (IC50) in HeLa (Cervical Carcinoma)) stood at 2.97 µM. For the same compound, in data set [4] (ratio of IC50 values), the “potency compared to Iressa, HeLa” value is reported as “seventeen times”. Moreover, in data set [5] (Homo sapiens, MDA-MB-231, MTT, read-out: Cell proliferation inhibition (IC50) in MDA-MB-231 (Breast Carcinoma)), the IC50 is 2.86 µM. The “potency compared to Iressa, MDA-MB-231” value in data set [5] (ratio of IC50 values) is “sixteen”. In data set [6] (Homo sapiens, HepG2, MTT, read-out: Cell proliferation inhibition (IC50) in HepG2 (Hepatocellular Carcinoma)), the IC50 is 2.33 µM. The “potency compared to Iressa, HepG2” value in data set [6] (ratio of IC50 values) is listed as “fifteen”.

Turning to `COc1cc2nc(-c3ccc(Cl)cc3)nc(Nc3cc(C(C)(C)C)[se]c3C(N)=O)c2cc1OC` [Compound 28, 3-(2-(4-chlorophenyl)-6,7-dimethoxyquinazolin-4-ylamino)-5-tert-butylselenophene-2-carboxamide], the melting point lay in the range of 268 to 270 °C. For the same compound, the inhibition at 10 µg/mL in data set [1] came out at 2.69%. The inhibition at 10 µg/mL in data set [2] was found to be 10.4%. Also, the inhibition at 10 µg/mL in data set [3] came out at 9%.

Turning to `COc1cc2ncnc(Oc3cc(C(C)(C)C)[se]c3C(N)=O)c2cc1OC` [Compound 29, 3-(6,7-dimethoxyquinazolin-4-yloxy)-5-tert-butylselenophene-2-carboxamide], the melting point was 220 to 224 °C. For the same compound, in data set [1], the inhibition at 10 µg/mL came out at 44.6%. Moreover, the inhibition at 10 µg/mL in data set [2] stood at 43%. Also, the inhibition at 10 µg/mL in data set [3] stood at 15.6%.
